We go through six molecules from patent US20250059267A1, “COMBINATION THERAPY FOR TREATMENT OF TUMORS COMPRISING CANCER-ASSOCIATED FIBROBLASTS” (PHENOMIC AI, priority 2021, published 2025).

Type in all cases: cell-based, human
The test system of test [1] is fibroblasts (BJ, CCD18-Co). The test can be described thus: Activin A, Activin B and TGF-β dose response for CAF induction in unstimulated fibroblasts. Particulars: for IC50 values, 1 hr vs. 48 hr timepoints: BJ or CCD18-Co fibroblast mono-cultures in minimal media (N=2); for phenotypic changes in fibroblasts (SMAD2/3, phospho-CREB, ASMA, Endosialin): BJ-fibroblasts; for EC50 values (fibroblast induction into a CAF like state, composite machine learning score): depending on condition tested, BJ, CCD18-Co, 1 hr and 48 hr; for ASMA score (intensity and number of ASMA filaments) vs. TGF-β treatment: highest dose, 48 hours. As to the method: FIG. 3 Activin and TGF-β both induce a CAF phenotype in fibroblast cell-lines. […] B) Quantification of ASMA levels and plate coverage further reinforce these changes downstream of addition of both Activin and TGF-β. C) TGF-β and Activin A were added over a range of doses to BJ or CCD18-Co colon fibroblasts grown as mono-cultures in minimal media (N=2). Cells were stained for Actin, Endosialin/CD248, DAPI/Nuclei, and αSMA. Machine Learning (Multiple Instance Learning) models were trained on the highest and lowest doses to generate dose-response curves.
To test whether Activin signaling could induce CAF activation similarly to TGF-β we added serial dilutions (3-fold) of recombinant Activin A ([…] max concentration) and Activin B ([…] max concentration) to unstimulated fibroblasts (BJ, CCD18-Co) to generate dose response curves for Activin A and B. A serial 3-fold dilution of TGF-β was also tested as a positive control ([…] max concentration). A number of high-content markers of CAF activation we used as endpoints. Namely, cells were probed for SMAD2/3 translocation to the nucleus and phospoCREB levels at 1 hr, as a marker of direct ACVR/TGFBR stimulation. ASMA and Endosialin levels were then probed at 48 hrs to quantify CAF induction levels following Activin and TGF-β stimulation. At the highest dose, at 1 hr we saw SMAD 2/3 nuclear translocation alongside phospho-CREB up-regulation, indicating receptor engagement and activity in both Activin and TGF-β treated conditions (FIG. 3A).

Test [2] relates to CCD-18Co normal colon fibroblasts. Description: Cytokine stimulation of fibroblast monocultures, CAF marker immunofluorescence. Particulars: fibroblast monoculture serum-starved 24 hours, stimulated 48 hours, vs untreated fibroblasts. As for the experimental part:
A panel of 5 CAF markers were then used to stain the cultures and the expression levels of expression of the markers calculated from individual segmented fibroblasts.
First, we treated normal human fibroblasts with a panel of cytokines to induce activation, and then assessed CAF marker expression by immunofluorescence. Fibroblast monocultures were serum-starved for 24 hours then stimulated with TGF-β, TNF alpha, PDGFbb, acidic FGF or other cytokines for 48 hours. Cells were then fixed, permeabilized and stained with a panel of immunofluorescent CAF markers and imaged by high-content microscopy.

Test [3] relates to fibroblasts grown in the presence of either HCT 116 cells or HT-29 cells. The test can be described thus: TGF-β pathway inhibitors in fibroblast-cancer cell co-cultures (CAF activation). Particulars: for block of CAF activation in coculture (FIG. 2B): BJ fibroblasts with HT-29 cells, TGF-β 1 ng/ml; for activity on CAF phenotypes in co-culture: identical doses to those used in the previous test. As for the experimental part:
(§1) FIG. 2 TGF-β inhibitors perform poorly in co-culture compared to mono-culture. (A) Normal BJ fibroblasts were cultured in either minimal media or alongside HT-29 CRC cancer cells. 6-different TGF-β inhibitors were added alongside TGF-β [1 ng/ml]ligand. […] (B) This is most apparent comparing the effects of three TGF-β inhibitors with varying selectivity.
(§2) In brief, monocultures of BJ or CCD18-Co fibroblasts were stimulated with TGF-β for 48 hours in the presence of serial dilutions of each TGF-β inhibitor and fibroblast activation was assessed by immunofluorescence using αSMA and CD248. The probability of fibroblast activation was assessed by a machine learning model, Multiple Instance Learning (MIL) trained on unstimulated fibroblasts (no drug, no TGF-β) as a negative control, and TGF-β stimulated fibroblasts (with vehicle control) as positive control. For co-culture comparisons, the same fibroblasts were grown in the presence of either HCT 116 cells or HT-29 cells and treated with the same serial dilutions of small molecule TGF-β. For these co-cultures, the addition of exogenous TGF-β is not required as the cancer cells secrete sufficient TGF-β for maximal fibroblast activation. […] This observation was confirmed by CellProfiler analysis where individual fibroblasts were segmented and αSMA and stress-fiber intensity was quantified (FIG. 2A).
We took an mAb inhibitor of TGFBR2, LY3022859, and assessed the performance of this inhibitor in co-culture alongside SIS3 and […], (FIG. 2 B). […] In contrast, both LY364947 and SIS3 were active at identical doses to those used in the previous test. Again, exogenous TGF-β was dispensable for this effect.

Test [4] concerns BJ or CCD18-Co fibroblasts. Description: TGF-β pathway inhibitors in TGF-β stimulated fibroblast monocultures (αSMA/CD248 immunofluorescence, MIL model). Particulars: 48 hours. As to the method: as §1
We then tested the relative potency of a panel of TGF-β pathway inhibitors in monoculture fibroblasts stimulated with TGF-β compared to co-culture with CRC cells that produce their own, similar levels of TGF-β.
as §2, with “control.” for “control. For co-culture comparisons, the same fibroblasts were grown in the presence of either HCT 116 cells or HT-29 cells and treated with the same serial dilutions of small molecule TGF-β. For these co-cultures, the addition of exogenous TGF-β is not required as the cancer cells secrete sufficient TGF-β for maximal fibroblast activation.”

Consider Activin A: recombinant Activin A, for which, in test [1], the “IC50 values, 1 hr vs. 48 hr timepoints” value is reported as “lower at the 48 hr timepoint in CCD18 colon fibroblasts”; the “phenotypic changes in fibroblasts (SMAD2/3, phospho-CREB, ASMA, Endosialin)” value (“phenotypic changes in fibroblasts” below) was “induce similar phenotypic changes”; the “EC50 values (fibroblast induction into a CAF like state, composite machine learning score)” value was in the range of 10 to 30 ng/µL; the “ASMA score (intensity and number of ASMA filaments) vs. TGF-β treatment” value is “no difference”.

Take “TGF-β: TGF-β ligand added as cytokine stimulus and positive control”: the “expression of alpha-smooth muscle actin (αSMA), podoplanin (PDPN) and CD248” value in test [2] is recorded as “increased expression”. Further, in test [1], the “IC50 values, 1 hr vs. 48 hr timepoints” value is reported as “lower for 1 hr timepoints vs. 48 hr timepoints” and the “phenotypic changes in fibroblasts” value is given as “induce similar phenotypic changes”.

`c1ccc(-c2[nH]ncc2-c2ccnc3ccccc23)nc1` [LY364947]: in test [3], the “block of CAF activation in coculture (FIG. 2B)” value is “blocks CAF activation at high doses” and the “activity on CAF phenotypes in co-culture” value was “active”.

Consider `COc1cc2c(cc1OC)CN(C(=O)/C=C/c1c(-c3ccccc3)n(C)c3ncccc13)CC2` [SIS3], for which, in test [3], the “response in co-culture among the inhibitors tested (rightward shift of IC50)” value is given as “best response”, the “block of CAF activation in coculture (FIG. 2B)” value was “able to block CAF activation” and the “activity on CAF phenotypes in co-culture” value was “active”. Besides, the “reduction of αSMA levels in coculture” value in test [3] (% of the control, conditions with >5% cell death excluded) is on record as “more than 50%”.

Turning to `Cc1cccc(-c2nn3c(c2-c2ccnc4ccc(C(N)=O)cc24)CCC3)n1` [LY2157299], the “inhibition of αSMA in co-culture” value in test [3] (even up to 100 μM) is “very little inhibition”. For the same molecule, the “effectiveness in monoculture (inhibition of αSMA)” value in test [4] was “effective”.

Turning to Activin B: recombinant Activin B, in test [1], the “phenotypic changes in fibroblasts” value was “induce similar phenotypic changes”; the “EC50 values (fibroblast induction into a CAF like state, composite machine learning score)” value was 4 to 9 ng/µL; the “ASMA score (intensity and number of ASMA filaments) vs. TGF-β treatment” value was “no difference”.
